Laboratory results as given in US20020137929A1, “1 - (3-heterocyclylphenyl) isothiourea, -isourea, -guanidine and -amidine herbicidal agents” (Intellectual Property Department, BASF Aktiengesellschaft, priority 1998, published 2002).

Assays:
ORYSAT (Rice, Tebonnet) [1] = experiment: Postemergence herbicidal evaluation; format: in vivo, Oryza sativa, (L.) Tebonnet; settings: postemergence
In short: (§1)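 First, seedlings were raised for around two weeks. Next, test material in 50/50 acetone/water containing 0.5% TWEEN 20 was sprayed through a nozzle at 40 psi, equivalent to about 0.0156–0.500 kg/ha. Finally, after 4–5 weeks in the greenhouse, plants were rated 0–9.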

[2] = test system: GLXMAW (Soybean, Williams); experiment: Preemergence herbicidal evaluation; format: in vivo, Glycine max, (L.) Merr. cv Williams; settings: rated 4-5 weeks after treatment, rating scale 0-9
In short: (§2)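 Scores (0–9) reflect visual comparison with control plants for stand, vigor, malformation, size and chlorosis. Compound was applied to the soil after sowing, before emergence, as an aqueous acetone spray (about 0.0156–0.500 kg/ha), and cups were kept in a greenhouse for 4–5 weeks.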

CASOB (Sicklepod) = experiment: Postemergence herbicidal evaluation; format: in vivo, Cassia obtusifolia; settings: postemergence
In short: as §1

SETVI (Foxtail, Green) = experiment: Preemergence herbicidal evaluation; format: in vivo, Setaria viridis; settings: rated 4-5 weeks after treatment, rating scale 0-9
In short: as §2

ORYSAT (Rice, Tebonnet) [3] = experiment: Preemergence herbicidal evaluation; format: in vivo, Oryza sativa, (L.) Tebonnet; settings: rated 4-5 weeks after treatment, rating scale 0-9
In short: as §2

CYPSE (Flatsedge) = experiment: Preemergence weed control under flooded paddy conditions; format: in vivo, Cyperus serotinus; settings: rated 3-4 weeks after treatment
In short: (§3)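 Ratings on a 0-9 visual scale cover stand, vigor, malformation, size, chlorosis and overall appearance relative to a control, taken three to four weeks post-treatment. Application was into flood water over freshly sown silt loam at roughly 0.0313 to 0.500 kg/ha.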

[4] = test system: CHEAL (Lambsquarters, Common); experiment: Postemergence herbicidal evaluation; format: in vivo, Chenopodium album; settings: postemergence
In short: as §1

MOOVA (Monochoria) = experiment: Preemergence weed control under flooded paddy conditions; format: in vivo, Monochoria vaginalis; settings: rated 3-4 weeks after treatment
In short: as §3

GALAP (Galium) = experiment: Postemergence herbicidal evaluation; format: in vivo, Galium aparine; settings: postemergence
In short: as §1

AMBEL (Ragweed, Common) = experiment: Preemergence herbicidal evaluation; format: in vivo, Ambrosia artemisifolia; settings: rated 4-5 weeks after treatment, rating scale 0-9
In short: as §2

ZEAMX (Corn, Field) = experiment: Postemergence herbicidal evaluation; format: in vivo, Zea mays; settings: postemergence
In short: as §1

Cn1c(C(F)(F)F)cc(=O)n(-c2cc(N=C3SCC(=O)N3Cc3ccc(Cl)cc3)c(Cl)cc2F)c1=O [Compound 145, 3-{4-Chloro-5-{[3-(p-chlorobenzyl)-4-oxo-2-thiazolidinylidene]amino}-2-fluorophenyl}-1-methyl-6-(trifluoromethyl)-2,4(1H,3H)-pyrimidinedione]
herbicidal rating ORYSAT (ORYSAT (Rice, Tebonnet) [1]; rate 0.0156 kg/ha): 2.5 | herbicidal rating ORYSAT (ORYSAT (Rice, Tebonnet) [1]; rate 0.0313 kg/ha): 2.5 | herbicidal rating ORYSAT (ORYSAT (Rice, Tebonnet) [1]; rate 0.0625 kg/ha): 3.5 | Preemergence herbicidal rating GLXMAW ([2]; rate 0.0156 kg/ha): 0.0 | Preemergence herbicidal rating GLXMAW ([2]; rate 0.0313 kg/ha): 0.0 | Preemergence herbicidal rating GLXMAW ([2]; rate 0.0625 kg/ha): 0.0 | Preemergence herbicidal rating GLXMAW ([2]; rate 0.1250 kg/ha): 1.0 | Preemergence herbicidal rating GLXMAW ([2]; rate 0.2500 kg/ha): 2.0 | herbicidal rating CASOB (CASOB (Sicklepod); rate 0.0156 kg/ha): 1.0 | herbicidal rating CASOB (CASOB (Sicklepod); rate 0.0313 kg/ha): 2.0 | herbicidal rating CASOB (CASOB (Sicklepod); rate 0.0625 kg/ha): 5.0 | Preemergence herbicidal rating SETVI (SETVI (Foxtail, Green); rate 0.0156 kg/ha): 1.0 | Preemergence herbicidal rating SETVI (SETVI (Foxtail, Green); rate 0.0313 kg/ha): 0.0 | Preemergence herbicidal rating SETVI (SETVI (Foxtail, Green); rate 0.0625 kg/ha): 7.0 | Preemergence herbicidal rating SETVI (SETVI (Foxtail, Green); rate 0.1250 kg/ha): 3.0 | Preemergence herbicidal rating SETVI (SETVI (Foxtail, Green); rate 0.2500 kg/ha): 7.0 | Preemergence herbicidal rating ORYSAT (ORYSAT (Rice, Tebonnet) [3]; rate 0.0156 kg/ha): 1.0 | Preemergence herbicidal rating ORYSAT (ORYSAT (Rice, Tebonnet) [3]; rate 0.0313 kg/ha): 1.0 | Preemergence herbicidal rating ORYSAT (ORYSAT (Rice, Tebonnet) [3]; rate 0.0625 kg/ha): 2.0 | Preemergence herbicidal rating ORYSAT (ORYSAT (Rice, Tebonnet) [3]; rate 0.1250 kg/ha): 3.0 | Preemergence herbicidal rating ORYSAT (ORYSAT (Rice, Tebonnet) [3]; rate 0.2500 kg/ha): 1.0 | herbicidal effect rating, CYPSE (CYPSE (Flatsedge); 0.1250 kg/ha): 9.0 | herbicidal effect rating, CYPSE (CYPSE (Flatsedge); 0.2500 kg/ha): 9.0 | herbicidal rating CHEAL ([4]; rate 0.0156 kg/ha): 5.0 | herbicidal rating CHEAL ([4]; rate 0.0313 kg/ha): 9.0 | herbicidal rating CHEAL ([4]; rate 0.0625 kg/ha): 9.0 | herbicidal effect rating, MOOVA (MOOVA (Monochoria); 0.0313 kg/ha): 4.0 | herbicidal effect rating, MOOVA (MOOVA (Monochoria); 0.0625 kg/ha): 6.0 | herbicidal effect rating, MOOVA (MOOVA (Monochoria); 0.1250 kg/ha): 9.0 | herbicidal effect rating, MOOVA (MOOVA (Monochoria); 0.2500 kg/ha): 9.0 | herbicidal rating GALAP (GALAP (Galium); rate 0.0156 kg/ha): 1.0 | herbicidal rating GALAP (GALAP (Galium); rate 0.0313 kg/ha): 4.0 | herbicidal rating GALAP (GALAP (Galium); rate 0.0625 kg/ha): 7.0 | Preemergence herbicidal rating AMBEL (AMBEL (Ragweed, Common); rate 0.0156 kg/ha): 0.0 | Preemergence herbicidal rating AMBEL (AMBEL (Ragweed, Common); rate 0.0313 kg/ha): 0.0 | Preemergence herbicidal rating AMBEL (AMBEL (Ragweed, Common); rate 0.0625 kg/ha): 2.0 | Preemergence herbicidal rating AMBEL (AMBEL (Ragweed, Common); rate 0.1250 kg/ha): 5.0 | Preemergence herbicidal rating AMBEL (AMBEL (Ragweed, Common); rate 0.2500 kg/ha): 7.0 | herbicidal rating ZEAMX (ZEAMX (Corn, Field); rate 0.0156 kg/ha): 4.0 | herbicidal rating ZEAMX (ZEAMX (Corn, Field); rate 0.0313 kg/ha): 4.0 | herbicidal rating ZEAMX (ZEAMX (Corn, Field); rate 0.0625 kg/ha): 5.0

Cc1ccc(CN2C(=O)CSC2=Nc2cc(-n3c(=O)cc(C(F)(F)F)n(C)c3=O)c(F)cc2Cl)cc1C [Compound 147, 3-{4-Chloro-5-{[3-(3,4-dimethylbenzyl)-4-oxo-2-thiazolidinylidene]amino}-2-fluorophenyl}-1-methyl-6-(trifluoromethyl)-2,4(1H,3H)-pyrimidinedione]
herbicidal rating ORYSAT (ORYSAT (Rice, Tebonnet) [1]; rate 0.0156 kg/ha): 1.5 | herbicidal rating ORYSAT (ORYSAT (Rice, Tebonnet) [1]; rate 0.0313 kg/ha): 2.5 | herbicidal rating ORYSAT (ORYSAT (Rice, Tebonnet) [1]; rate 0.0625 kg/ha): 3.5 | Preemergence herbicidal rating GLXMAW ([2]; rate 0.0156 kg/ha): 1.0 | Preemergence herbicidal rating GLXMAW ([2]; rate 0.0313 kg/ha): 0.0 | Preemergence herbicidal rating GLXMAW ([2]; rate 0.0625 kg/ha): 0.0 | Preemergence herbicidal rating GLXMAW ([2]; rate 0.1250 kg/ha): 0.0 | Preemergence herbicidal rating GLXMAW ([2]; rate 0.2500 kg/ha): 1.0 | herbicidal rating CASOB (CASOB (Sicklepod); rate 0.0156 kg/ha): 1.0 | herbicidal rating CASOB (CASOB (Sicklepod); rate 0.0313 kg/ha): 1.0 | herbicidal rating CASOB (CASOB (Sicklepod); rate 0.0625 kg/ha): 2.0 | Preemergence herbicidal rating SETVI (SETVI (Foxtail, Green); rate 0.0156 kg/ha): 1.0 | Preemergence herbicidal rating SETVI (SETVI (Foxtail, Green); rate 0.0313 kg/ha): 0.0 | Preemergence herbicidal rating SETVI (SETVI (Foxtail, Green); rate 0.0625 kg/ha): 0.0 | Preemergence herbicidal rating SETVI (SETVI (Foxtail, Green); rate 0.1250 kg/ha): 1.0 | Preemergence herbicidal rating SETVI (SETVI (Foxtail, Green); rate 0.2500 kg/ha): 4.0 | Preemergence herbicidal rating ORYSAT (ORYSAT (Rice, Tebonnet) [3]; rate 0.0156 kg/ha): 0.0 | Preemergence herbicidal rating ORYSAT (ORYSAT (Rice, Tebonnet) [3]; rate 0.0313 kg/ha): 0.0 | Preemergence herbicidal rating ORYSAT (ORYSAT (Rice, Tebonnet) [3]; rate 0.0625 kg/ha): 0.0 | Preemergence herbicidal rating ORYSAT (ORYSAT (Rice, Tebonnet) [3]; rate 0.1250 kg/ha): 0.0 | Preemergence herbicidal rating ORYSAT (ORYSAT (Rice, Tebonnet) [3]; rate 0.2500 kg/ha): 0.0 | herbicidal effect rating, CYPSE (CYPSE (Flatsedge); 0.2500 kg/ha): 0.0 | herbicidal rating CHEAL ([4]; rate 0.0156 kg/ha): 5.0 | herbicidal rating CHEAL ([4]; rate 0.0313 kg/ha): 6.0 | herbicidal rating CHEAL ([4]; rate 0.0625 kg/ha): 9.0 | herbicidal effect rating, MOOVA (MOOVA (Monochoria); 0.0313 kg/ha): 7.0 | herbicidal effect rating, MOOVA (MOOVA (Monochoria); 0.0625 kg/ha): 9.0 | herbicidal effect rating, MOOVA (MOOVA (Monochoria); 0.1250 kg/ha): 9.0 | herbicidal effect rating, MOOVA (MOOVA (Monochoria); 0.2500 kg/ha): 9.0 | herbicidal rating GALAP (GALAP (Galium); rate 0.0156 kg/ha): 0.0 | herbicidal rating GALAP (GALAP (Galium); rate 0.0313 kg/ha): 1.0 | herbicidal rating GALAP (GALAP (Galium); rate 0.0625 kg/ha): 3.0 | Preemergence herbicidal rating AMBEL (AMBEL (Ragweed, Common); rate 0.0156 kg/ha): 0.0 | Preemergence herbicidal rating AMBEL (AMBEL (Ragweed, Common); rate 0.0313 kg/ha): 0.0 | Preemergence herbicidal rating AMBEL (AMBEL (Ragweed, Common); rate 0.0625 kg/ha): 0.0 | Preemergence herbicidal rating AMBEL (AMBEL (Ragweed, Common); rate 0.1250 kg/ha): 1.0 | Preemergence herbicidal rating AMBEL (AMBEL (Ragweed, Common); rate 0.2500 kg/ha): 4.0 | herbicidal rating ZEAMX (ZEAMX (Corn, Field); rate 0.0156 kg/ha): 4.0 | herbicidal rating ZEAMX (ZEAMX (Corn, Field); rate 0.0313 kg/ha): 4.5 | herbicidal rating ZEAMX (ZEAMX (Corn, Field); rate 0.0625 kg/ha): 4.5
